Test results taken from ChEMBL document CHEMBL4828726, “Modification of 5-methylphenanthridium from benzothiazoles to indoles as potent FtsZ inhibitors: Broadening the antibacterial spectrum toward vancomycin-resistant enterococci” (Eur J Med Chem, 2021).
≈ marks a conversion by molar mass, not a printed value.

Columns and labels:
Format in all cases: functional
Staphylococcus aureus [1] = experiment: Antibacterial activity against methicillin-resistant Staphylococcus aureus ATCC43300 assessed as inhibition of bacterial growth measured after 20 hrs by two-fold microdilution assay
Staphylococcus aureus [2] = experiment: Antibacterial activity against clinical isolate Staphylococcus aureus C1 assessed as inhibition of bacterial growth measured after 20 hrs by two-fold microdilution assay
Staphylococcus aureus [3] = experiment: Antibacterial activity against penicillin-resistant Staphylococcus aureus ATCC 31007 assessed as inhibition of bacterial growth measured after 20 hrs by two-fold microdilution assay
Escherichia coli = experiment: Antibacterial activity against penicillin-susceptible Escherichia coli ATCC 25922 assessed as inhibition of bacterial growth measured after 20 hrs by two-fold microdilution assay
Bacillus pumilus = experiment: Antibacterial activity against penicillin-susceptible Bacillus pumilus CMCC63202 assessed as inhibition of bacterial growth measured after 20 hrs by two-fold microdilution assay
Pseudomonas aeruginosa = experiment: Antibacterial activity against penicillin-susceptible Pseudomonas aeruginosa ATCC 27853 assessed as inhibition of bacterial growth measured after 20 hrs by two-fold microdilution assay
Streptococcus pyogenes [4] = experiment: Antibacterial activity against erythromycin-susceptible Streptococcus pyogenes assessed as inhibition of bacterial growth measured after 20 hrs by two-fold microdilution assay
Staphylococcus aureus [5] = experiment: Antibacterial activity against erythromycin-susceptible Staphylococcus aureus ATCC 25923 assessed as inhibition of bacterial growth measured after 20 hrs by two-fold microdilution assay
[6] = test system: Staphylococcus epidermidis; experiment: Antibacterial activity against penicillin-resistant Staphylococcus epidermidis assessed as inhibition of bacterial growth measured after 20 hrs by two-fold microdilution assay
Bacillus subtilis [7] = experiment: Antibacterial activity against penicillin-susceptible Bacillus subtilis ATCC 9372 assessed as inhibition of bacterial growth measured after 20 hrs by two-fold microdilution assay
Enterococcus faecium [8] = experiment: Antibacterial activity against Vancomycin-resistant Enterococcus faecium ATCC 51559 assessed as inhibition of bacterial growth measured after 20 hrs by two-fold microdilution assay
Enterococcus faecalis [9] = experiment: Antibacterial activity against Vancomycin-susceptible Enterococcus faecalis ATCC 29212 assessed as inhibition of bacterial growth measured after 20 hrs by two-fold microdilution assay
Enterococcus faecalis [10] = experiment: Antibacterial activity against Vancomycin-resistant Enterococcus faecalis ATCC 51299 assessed as inhibition of bacterial growth measured after 20 hrs by two-fold microdilution assay
Streptococcus pyogenes [11] = experiment: Antibacterial activity against erythromycin-resistant Streptococcus pyogenes assessed as inhibition of bacterial growth measured after 20 hrs by two-fold microdilution assay
Enterococcus faecium [12] = experiment: Antibacterial activity against Vancomycin-susceptible Enterococcus faecium ATCC 19434 assessed as inhibition of bacterial growth measured after 20 hrs by two-fold microdilution assay
Bacillus subtilis [13] = experiment: Bactericidal activity against penicillin-susceptible Bacillus subtilis ATCC 9372 assessed as inhibition of bacterial growth measured after 20 hrs by two-fold microdilution assay
Staphylococcus aureus [14] = experiment: Bactericidal activity against erythromycin-susceptible Staphylococcus aureus ATCC 25923 assessed as inhibition of bacterial growth measured after 20 hrs by two-fold microdilution assay

Row | Structure (SMILES) | MIC (Staphylococcus aureus [1]) [µg/mL] | MIC (Staphylococcus aureus [2]) [µg/mL] | MIC (Staphylococcus aureus [3]) [µg/mL] | MIC (Escherichia coli) [µg/mL] | MIC (Bacillus pumilus) [µg/mL] | MIC (Pseudomonas aeruginosa) [µg/mL] | MIC (Streptococcus pyogenes [4]) [µg/mL] | MIC (Staphylococcus aureus [5]) [µg/mL] | MIC [6] [µg/mL] | MIC (Bacillus subtilis [7]) [µg/mL] | MIC (Enterococcus faecium [8]) [µg/mL] | MIC (Enterococcus faecalis [9]) [µg/mL] | MIC (Enterococcus faecalis [10]) [µg/mL] | MIC (Streptococcus pyogenes [11]) [µg/mL] | MIC (Enterococcus faecium [12]) [µg/mL] | MBC (Bacillus subtilis [13]) [µg/mL] | MBC (Staphylococcus aureus [14]) [µg/mL]
1 | COc1ccc2c(c1)c[n+](C)c1ccc(-c3nc4ccccc4s3)cc21.[Cl-] | > 64 | > 64 | > 64 | > 64 | > 64 | > 64 | > 64 | > 64 | > 64 | > 64 | – | – | – | – | – | – | –
2 | CN[C@H](CC(C)C)C(=O)N[C@H]1C(=O)N[C@@H](CC(N)=O)C(=O)N[C@H]2C(=O)N[C@H]3C(=O)N[C@H](C(=O)N[C@H](C(=O)O)c4cc(O)cc(O)c4-c4cc3ccc4O)[C@H](O)c3ccc(c(Cl)c3)Oc3cc2cc(c3O[C@@H]2O[C@H](CO)[C@@H](O)[C@H](O)[C@H]2O[C@H]2C[C@](C)(N)[C@H](O)[C@H](C)O2)Oc2ccc(cc2Cl)[C@H]1O [VANCOMYCIN] | – | – | – | – | – | – | – | – | – | – | > 64 | 2 (≈ 1.38 µM) | > 64 | – | – | – | –
3 | Cc1cccc2c[n+](C)c3ccc(-c4ccc5ccn(C)c5c4)cc3c12.[Cl-] | 8 | 8 | 32 | > 64 | 8 | > 64 | 8 | 2 | 16 | 1 | – | – | – | 4 | – | – | –
4 | CCn1ccc2ccc(-c3ccc4c(c3)c3c(C)cccc3c[n+]4C)cc21.[Cl-] | 8 | 8 | 32 | > 64 | 16 | > 64 | 8 | 2 | 16 | 4 | – | – | – | 8 | – | – | –
5 | Cc1cccc2c1c[n+](C)c1ccc(-c3nc4ccccc4s3)cc21.[Cl-] | > 64 | > 64 | > 64 | > 64 | > 64 | > 64 | 32 | 16 | > 64 | > 64 | – | – | – | 64 | – | – | –
6 | CCCn1ccc2ccc(-c3ccc4c(c3)c3cc(C)ccc3c[n+]4C)cc21.[Cl-] | 64 | 32 | > 64 | > 64 | > 64 | > 64 | > 64 | 16 | > 64 | 64 | – | – | – | 32 | – | – | –
7 | Cc1cccc2c[n+](C)c3ccc(-c4ccc5ccn(Cc6ccc(OC(F)(F)F)cc6)c5c4)cc3c12.[Cl-] | 16 | 8 | 8 | > 64 | 32 | – | 16 | 2 | 8 | 8 | 4 | 8 | 8 | 16 | 4 | – | –
8 | CCCCCn1ccc2ccc(-c3ccc4c(c3)c3cc(C)ccc3c[n+]4C)cc21.[Cl-] | 4 | 4 | 8 | > 64 | 8 | > 64 | 8 | 2 | 8 | 4 | – | – | – | 16 | – | – | –
9 | Cc1cccc2c[n+](C)c3ccc(-c4ccc5ccn(Cc6ccc(C(F)(F)F)cc6)c5c4)cc3c12.[Cl-] | 8 | 8 | 8 | > 64 | 4 | > 64 | 16 | 2 | 4 | 2 | 8 | 16 | 8 | 16 | 8 | – | –
10 | Cc1cccc2c[n+](C)c3ccc(-c4ccc5ccn(CC(C)C)c5c4)cc3c12.[Cl-] | 4 | 4 | 8 | > 64 | 8 | > 64 | 8 | 2 | 8 | 4 | – | – | – | 16 | – | – | –
11 | Cc1ccc2c[n+](C)c3ccc(-c4ccc5ccn(C)c5c4)cc3c2c1.[Cl-] | 32 | 8 | > 64 | > 64 | 16 | > 64 | 4 | 4 | > 64 | 2 | – | – | – | 4 | – | – | –
12 | C[n+]1cc2ccccc2c2cc(-c3nc4ccccc4s3)ccc21.[Cl-] | > 64 | > 64 | > 64 | > 64 | > 64 | > 64 | > 64 | > 64 | > 64 | > 64 | – | – | – | – | – | – | –
13 | Cc1ccc2c(c1)c[n+](C)c1ccc(-c3nc4ccccc4s3)cc21.[Cl-] | > 64 | > 64 | > 64 | > 64 | 32 | > 64 | 16 | 32 | > 64 | 4 | – | – | – | 16 | – | – | –
14 | Cc1cccc2c[n+](C)c3ccc(-c4nc5ccccc5s4)cc3c12.[Cl-] | 4 | 4 | 4 | > 64 | 4 | > 64 | 4 | 2 | 4 | 4 | 16 | 1 | 16 | 4 | 8 | > 64 | > 64
15 | Cc1ccc2c[n+](C)c3ccc(-c4nc5ccccc5s4)cc3c2c1.[Cl-] | > 64 | > 64 | > 64 | > 64 | 4 | > 64 | 4 | 16 | > 64 | 1 | – | – | – | 4 | – | – | –
16 | COc1ccc2c[n+](C)c3ccc(-c4nc5ccccc5s4)cc3c2c1.[Cl-] | > 64 | > 64 | > 64 | > 64 | > 64 | > 64 | > 64 | > 64 | > 64 | > 64 | – | – | – | – | – | – | –
17 | O=C(O)c1cn(C2CC2)c2cc(N3CCNCC3)c(F)cc2c1=O [CIPROFLOXACIN] | – | – | > 64 | – | – | – | – | 4 (≈ 12.1 µM) | > 64 | 4 (≈ 12.1 µM) | > 64 | 32 (≈ 96.6 µM) | > 64 | – | > 64 | – | –
18 | CCCCCn1ccc2ccc(-c3ccc4c(c3)c3c(C)cccc3c[n+]4C)cc21.[Cl-] | 2 | 2 | 4 | > 64 | 4 | > 64 | 16 | 2 | 8 | 2 | – | – | – | 16 | – | – | –
19 | CCCCn1ccc2ccc(-c3ccc4c(c3)c3cc(C)ccc3c[n+]4C)cc21.[Cl-] | 8 | 4 | 8 | > 64 | 8 | > 64 | 8 | 2 | 16 | 4 | 8 | 8 | 16 | 16 | 8 | – | –
20 | Cc1ccc2c[n+](C)c3ccc(-c4ccc5ccn(CC(C)C)c5c4)cc3c2c1.[Cl-] | 4 | 4 | 8 | > 64 | 4 | > 64 | 4 | 2 | 16 | 4 | – | – | – | 8 | – | – | –
21 | COc1ccc2cc3[n+](cc2c1OC)CCc1cc2c(cc1-3)OCO2 [BERBERINE] | > 64 | > 64 | > 64 | > 64 | > 64 | > 64 | 64 | 64 | > 64 | > 64 | > 64 | > 64 | > 64 | 64 | > 64 | – | –
